Common to all, as to experiment: DTP human tumour cell line panel, 48 h
Assay [1] relates to HOP-62 NSCLC.
The test system of assay [2] is OVCAR-3 ovarian.
The test system of assay [3] is OVCAR-5 ovarian.
In assay [4] the test system is OVCAR-8 ovarian.
Assay [5] deals with SF-295 CNS.
For assay [6], the system named is SR leukemia.
Assay [7] concerns DU-145 prostate.
The subject of assay [8] is MDA-MB-231 breast.
Assay [9] relates to NCI-H226 lung.
Assay [10] concerns RXF 393 renal.
In assay [11] the test system is T-47D breast.

Several values for one entry are separate records, joined by “and”; a condition that tells them apart may be missing. Equal entries are not always repeated.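 Dose response: 5 concentrations. Exposure: 48 h. Format: 96-well plates. Endpoint: linear interpolation; highest concentration if not reached. At the GI50, growth is halved. At the TGI there is no net growth.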 Some results are limits rather than exact numbers.

By TGI is commonly meant the concentration at which net growth stops. Low values mean more potent growth arrest, high ones less potent growth arrest. Broadly, the GI50 is the concentration at which growth is held to half of that of the control.

As for `CCOc1ccccc1N=Nc1ccc2oc(=O)c(C(C)=O)cc2c1`, the TGI in assay [1], in [2], in [3], in assay [4] and in [5] was above 100 µM each time.

Turning to `CC1=CC2C(C=C1)S(=O)(=O)N1CC21c1ccccc1` (stereo not drawn), the TGI in assay [1], in assay [2], in assay [3], in assay [4], in assay [5] and in assay [6] was above 100 µM throughout.

For the compound `CCOC(=O)c1c[nH]c(C(=O)OCC)c1-c1cccn1-c1ccccc1`, the TGI in [7] is above 100 µM; in assay [1], 50 µM; in assay [8] it was above 100 µM; in assay [9], 98.8 µM; in assay [2], 37.4 µM; in assay [3] it was above 100 µM. The TGI in [4] was 59.6 µM; in [10] it was 43 µM; in assay [5], 52.3 µM; in assay [11] it was above 100 µM.

Take `O=C1NC2NC3NC(=O)NC3NC2N1` (stereo not drawn): the TGI in assay [7], in assay [1], in assay [8], in assay [9], in assay [2] and in [3] was above 100 µM each time. Besides, the TGI in assay [4], in assay [10], in assay [5] and in assay [6] was above 100 µM throughout.

Turning to `CS(=O)(=O)N1CC(CCl)c2ccc(NO)cc21` (stereo not drawn), the TGI in assay [7] is above 100 µM; in [1], 47.4 µM; in [8] it was 30.5 µM; in assay [9], above 78 µM; in assay [2], 40.7 µM; in [3], 40.5 µM. For the same compound, the TGI in assay [4] is 27.9 µM; in assay [10], 10.9 µM; in assay [5] it was 61.9 µM; in assay [11], 60.1 µM.

On to `CC1=C(c2nc3ccccc3s2)C(=O)OC1(C)C`, for which the TGI in assay [1], in assay [9], in assay [2], in assay [3], in [4] and in assay [5] was above 100 µM in each case. For the same compound, in [6], the TGI is above 100 µM.

Regarding `CCOC1=C2N=C(C(CC)c3ccccc3F)N=C2C(=O)c2ccccc21` (stereo not drawn), the TGI in assay [1] was above 100 µM; in [9] it was above 100 µM; in assay [2], above 100 µM; in [4], above 100 µM; in assay [10], 74.8 µM; in assay [5] it was above 100 µM. The TGI in assay [6] was above 100 µM.

Turning to `Cc1cc2ncn(-c3nc4ccccc4nc3C(C#N)S(C)(=O)=O)c2cc1C` (stereo not drawn), the total growth inhibition concentration (TGI) in assay [1], in assay [9], in assay [2], in assay [3], in [4] and in assay [6] was above 100 µM each time.

As for `N#CC(NNC(=O)Cc1ccccc1)c1cccc(O)c1` (stereo not drawn), the TGI in assay [1], in assay [9], in [3], in assay [4], in assay [10] and in assay [5] was above 100 µM throughout. The compound also showed a TGI in assay [6] above 100 µM.

With `Nc1nc(NNc2cccc(F)c2)cc(=O)[nH]1`, the TGI in [7] was above 100 µM; in [1], 58.5 µM; in assay [8], above 100 µM; in [9] it was above 100 µM; in assay [2], 51.5 µM; in assay [3] it was above 100 µM. In addition, the concentration for total growth inhibition (TGI) in [4], in [5] and in assay [6] was above 100 µM throughout.

Consider `COc1ccc2[nH]c3c(c2c1)[C@H](c1ccccc1)C[C@@H]1C(=O)N(c2ccccc2)C(=O)[C@H]31`, for which the TGI was 48.8 µM in assay [1]; 57.6 µM in assay [9]; 45.6 µM in assay [2]; above 100 µM in [3]; 17.6 µM in assay [4]; 36.1 µM in assay [10]. Further, the TGI in assay [5] was above 100 µM; in [6], 76.4 µM.

`CCOC(=O)c1c2ccc(/C=C/c3ccccn3)ccc-2c(C(=O)OCC)c1N`: the total growth inhibition concentration (TGI) in [9], in [2], in assay [3], in assay [10] and in assay [5] was above 100 µM in each case.

Regarding `O=C1[C@@H]2C(c3ccc(Br)cc3)=NO[C@@H]2C(=O)N1c1ccc(Cc2ccc(N3C(=O)[C@H]4C(c5ccc(Br)cc5)=NO[C@H]4C3=O)cc2)cc1`, the TGI in [1] was above 3.48 µM; in [2] it was above 40 µM; in assay [3] it was above 40 µM; in [4], above 40 µM; in assay [10], above 40 µM; in [5], above 3.48 µM. In assay [6], this compound registered a TGI above 40 µM. Besides, the GI50 in assay [2], in [3], in [4] and in assay [10] was above 40 µM throughout.

For `O=Cc1c[nH]c2c(=O)[nH]cnc12`, the TGI in assay [1], in assay [2], in assay [4], in assay [10], in assay [5] and in assay [6] was above 100 µM each time.

`O=c1[nH]/c(=C/c2ccc3c(c2)OCO3)c(=O)[nH]/c1=C/c1ccc2c(c1)OCO2`: the TGI in assay [7], in assay [1], in [8], in assay [9], in [2] and in assay [3] was above 10 µM in each case. Also, the TGI in assay [4], in assay [10], in assay [5] and in assay [11] was above 10 µM each time.

On to `COc1ccc(N2C(=O)c3c(c4[nH]c5ccccc5c4c4ccc(C(C)(C)C)cc34)C2=O)cc1`, for which the TGI in [1] is above 100 µM; in assay [9], above 100 µM; in [2] it was 53.6 µM; in assay [3], above 100 µM; in assay [4], 63.6 µM; in assay [10], 98.1 µM. Also, the results for the TGI in [5] and in [6] were 92.9 µM and 57.2 µM, respectively.

Take `O=C(Cc1ccccc1)NN1C(=O)C(Cl)C1c1ccccc1Cl` (stereo not drawn): the total growth inhibition concentration (TGI) in [1], in assay [9], in [2], in [3], in assay [4] and in assay [10] was above 100 µM throughout. In addition, the TGI in assay [5] was above 100 µM; in assay [6], 64.4 µM.

For the compound `CC1=NN(c2nc(N)nc(NS(=O)(=O)c3cc(C)c(Cl)cc3S)n2)C(C)(C)C1`, the TGI in assay [7], in assay [1], in [9], in assay [2], in assay [3] and in assay [4] was above 10 µM each time. The TGI in assay [10], in [5], in assay [6] and in assay [11] was above 10 µM in each case.

As for `COc1ccc(C2=Nc3c(nc(OC)[nH]c3=O)NC(c3ccccc3)C2)cc1` (stereo not drawn), the TGI in assay [7] was above 100 µM; in [1], above 100 µM; in assay [8], 53.4 µM; in [9], above 100 µM; in assay [2], above 100 µM; in assay [3], above 100 µM. Besides, the TGI in [4] was 54.4 µM; in assay [10] it was 63.9 µM; in assay [5], above 100 µM; in [6], above 100 µM.

Take `C=CCCC1(O)C(O)C(CO)O[C@H](O[C@@]2(CO)OC(CO)C(O)C2O)C1O` (stereo partly drawn): the concentration for total growth inhibition (TGI) in assay [7], in assay [1], in assay [8], in assay [9], in [3] and in assay [4] was above 100 µM in each case. In addition, the total growth inhibition concentration (TGI) in [5] and in assay [6] was above 100 µM in each case.

Consider `CC1=CC(=O)CC2(C)CCC(C(C)CC(=O)CC(C)C)CC12OO` (stereo not drawn), for which the TGI was 32.3 µM and 29.5 µM in assay [7]; 29.5 µM and 32.7 µM in assay [8]; 43.5 µM and 37.7 µM in assay [9]; 35.5 µM and 47.5 µM in assay [3]; 90.2 µM and 45.4 µM in assay [4]; 26.2 µM and > 100 µM in assay [10]. Moreover, the TGI is 31 µM and 30 µM in [5]; 41.5 µM and 41.4 µM in assay [6]. Further, the GI50 in [10] is 12.5 µM and 32.6 µM.

Regarding `O[C@]12C=C(c3nccc4c3[nH]c3ccccc34)[C@@H]3CCN(CCCC/C=C\CC1)C[C@@]31CC3/C=C\CCCCN3[C@H]12` (stereo partly drawn), the TGI worked out at 2.86 µM in assay [7]; 0.525 µM in [1]; 1.84 µM in assay [8]; 5.2 µM in assay [9]; 1.55 µM in [2]; 1.83 µM in assay [3]. The TGI in assay [4] came to 1.51 µM; in assay [5], 2.67 µM; in assay [11], 4.67 µM.

`CC(C)c1cccc(C(C)C)c1NC(=O)C(=O)Cc1nc2ccc([N+](=O)[O-])cc2[nH]c1=O`: the TGI in assay [9], in assay [2], in assay [3], in [10] and in assay [5] was above 100 µM each time.

In the case of `COc1cc2ccc3c4ccccc4cnc3c2cc1OC`, the TGI in assay [1], in [9], in [2], in [3], in assay [4] and in [10] was above 100 µM in each case. For the same compound, the TGI in assay [5] and in assay [6] was above 100 µM each time.

As for `CCc1n[nH]c(=O)n1CCCCCCCCn1c(CC)n[nH]c1=O`, the TGI in assay [1], in assay [8], in assay [9], in [2], in assay [3] and in assay [4] was above 100 µM in each case. Further, the TGI in [10], in assay [5], in assay [6] and in assay [11] was above 100 µM each time.

`COC(=O)C(=O)C(C(=O)OC)C(=O)C(=O)Nc1c(C)cccc1C` (stereo not drawn): the TGI in assay [1], in assay [9], in [2], in [3], in assay [4] and in assay [10] was above 100 µM each time. Also, the TGI in assay [5] and in [6] was above 100 µM in each case.

In the case of `CC(=O)OI1NC(=O)c2ccccc21`, the TGI in assay [7], in assay [1], in assay [8], in assay [9], in assay [2] and in assay [3] was above 100 µM throughout. For the same compound, the TGI in assay [4], in assay [5] and in assay [6] was above 100 µM throughout.

`O=C(CNc1ccccn1)Nn1cnc2ccc(S(=O)(=O)Nc3ccccn3)cc2c1=O`: the TGI in [7], in [1], in [8], in assay [9], in assay [2] and in [3] was above 100 µM throughout. The total growth inhibition concentration (TGI) in [4], in assay [5] and in assay [6] was above 100 µM in each case.

On to `Cc1ccc(S(=O)c2cccs2)cc1` (stereo not drawn), for which the TGI in assay [7], in [1], in assay [9], in assay [2], in assay [3] and in [4] was above 100 µM throughout. The TGI in assay [10], in assay [5], in assay [6] and in assay [11] was above 100 µM throughout.

Take `Nc1nc2c(N)cc(C(F)(F)F)cc2nc1-c1ccccc1`: the TGI in assay [1], in [9], in assay [2], in assay [3], in [4] and in assay [10] was above 100 µM throughout. Besides, the TGI in [5] and in assay [6] was above 100 µM throughout.

As for `COC(=O)C1CC2C=CC=CC(=O)C2(C)C1` (stereo not drawn), the TGI in assay [1], in assay [9], in assay [2], in assay [3], in [4] and in [5] was above 100 µM in each case. The TGI in [6] was 76.5 µM.

The values are drawn from PubChem BioAssay (NCI).
